Data reported in ChEMBL document CHEMBL4052776, “Discovery of 3-morpholino-imidazole[1,5-a]pyrazine BTK inhibitors for rheumatoid arthritis” (Bioorg Med Chem Lett, 2017).

Columns and labels:
[1] = target: T1, Tyrosine-protein kinase BTK (Homo sapiens, UniProt Q06187); assay: Inhibition of recombinant full-length His6-tagged BTK (unknown origin) expressed in baculovirus infected Sf9 cells using biotinylated A5 peptide as substrate preincubated for 60 mins followed by substrate addition measured after 120 mins by LANCE TR-FRET assay
[2] = target: T2, Tyrosine-protein kinase TXK (Homo sapiens, UniProt P42681); assay: Inhibition of TXK (unknown origin)
T2 sequence (P42681 whole entry): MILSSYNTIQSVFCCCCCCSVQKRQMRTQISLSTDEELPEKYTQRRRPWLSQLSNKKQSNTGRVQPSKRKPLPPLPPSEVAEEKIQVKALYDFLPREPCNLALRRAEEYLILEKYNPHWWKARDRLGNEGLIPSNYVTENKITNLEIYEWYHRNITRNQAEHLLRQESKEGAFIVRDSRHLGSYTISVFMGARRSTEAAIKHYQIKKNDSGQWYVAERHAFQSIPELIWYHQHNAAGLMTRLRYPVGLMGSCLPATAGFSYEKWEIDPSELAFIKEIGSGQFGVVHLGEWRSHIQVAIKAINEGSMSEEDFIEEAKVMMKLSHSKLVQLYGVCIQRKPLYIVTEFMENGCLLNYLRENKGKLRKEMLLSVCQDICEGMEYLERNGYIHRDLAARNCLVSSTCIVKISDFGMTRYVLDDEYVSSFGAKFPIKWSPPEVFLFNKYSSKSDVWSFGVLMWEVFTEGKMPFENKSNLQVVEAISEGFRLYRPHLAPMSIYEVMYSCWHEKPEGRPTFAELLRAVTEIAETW

Homo sapiens [3] = organism: Homo sapiens; assay: Selectivity ratio of IC50 for FGR (unknown origin) to IC50 for BTK (unknown origin)
[4] = target: Tyrosine-protein kinase Lyn (Homo sapiens, UniProt P07948); assay: Inhibition of LYNB (unknown origin)
[5] = target: Receptor tyrosine-protein kinase erbB-4 (Homo sapiens, UniProt Q15303); assay: Inhibition of ERBB4 (unknown origin)
[6] = target: Tyrosine-protein kinase Fgr (Homo sapiens, UniProt P09769); assay: Inhibition of FGR (unknown origin)
[7] = target: Tyrosine-protein kinase CSK (Homo sapiens, UniProt P41240); assay: Inhibition of CSK (unknown origin)
[8] = target: Voltage-gated inwardly rectifying potassium channel KCNH2 (Homo sapiens, UniProt Q12809); assay: Inhibition of human ERG by [35S]-MK499 displacement or iKr channel assay
Homo sapiens [9] = organism: Homo sapiens; assay: Selectivity ratio of IC50 for LYNB (unknown origin) to IC50 for BTK (unknown origin)
[10] = target: Protein-tyrosine kinase 6 (Homo sapiens, UniProt Q13882); assay: Inhibition of PTK6 (unknown origin)
Homo sapiens [11] = organism: Homo sapiens; assay: Selectivity ratio of IC50 for FYN (unknown origin) to IC50 for BTK (unknown origin)
Homo sapiens [12] = organism: Homo sapiens; assay: Selectivity ratio of IC50 for LCK (unknown origin) to IC50 for BTK (unknown origin)
[13] = Half life in dog at 2 mg/kg administered as cassette dose; assay type: ADME, organism-based, Canis lupus familiaris; conditions: in vivo
Homo sapiens [14] = organism: Homo sapiens; assay: Selectivity ratio of IC50 for FRK (unknown origin) to IC50 for BTK (unknown origin)
Homo sapiens [15] = organism: Homo sapiens; assay: Selectivity ratio of IC50 for PTK6 (unknown origin) to IC50 for BTK (unknown origin)
Homo sapiens [16] = organism: Homo sapiens; assay: Selectivity ratio of IC50 for SRC (unknown origin) to IC50 for BTK (unknown origin)
[17] = target: Tyrosine-protein kinase FRK (Homo sapiens, UniProt P42685); assay: Inhibition of FRK (unknown origin)
[18] = target: Proto-oncogene tyrosine-protein kinase Src (Homo sapiens, UniProt P12931); assay: Inhibition of SRC (unknown origin)
Homo sapiens [19] = organism: Homo sapiens; assay: Selectivity ratio of IC50 for ERBB4 (unknown origin) to IC50 for BTK (unknown origin)
[20] = target: Tyrosine-protein kinase Fyn (Homo sapiens, UniProt P06241); assay: Inhibition of FYN (unknown origin)
[21] = target: T3, Cytoplasmic tyrosine-protein kinase BMX (Homo sapiens, UniProt P51813); assay: Inhibition of BMX (unknown origin)
T3 sequence (P51813 whole entry): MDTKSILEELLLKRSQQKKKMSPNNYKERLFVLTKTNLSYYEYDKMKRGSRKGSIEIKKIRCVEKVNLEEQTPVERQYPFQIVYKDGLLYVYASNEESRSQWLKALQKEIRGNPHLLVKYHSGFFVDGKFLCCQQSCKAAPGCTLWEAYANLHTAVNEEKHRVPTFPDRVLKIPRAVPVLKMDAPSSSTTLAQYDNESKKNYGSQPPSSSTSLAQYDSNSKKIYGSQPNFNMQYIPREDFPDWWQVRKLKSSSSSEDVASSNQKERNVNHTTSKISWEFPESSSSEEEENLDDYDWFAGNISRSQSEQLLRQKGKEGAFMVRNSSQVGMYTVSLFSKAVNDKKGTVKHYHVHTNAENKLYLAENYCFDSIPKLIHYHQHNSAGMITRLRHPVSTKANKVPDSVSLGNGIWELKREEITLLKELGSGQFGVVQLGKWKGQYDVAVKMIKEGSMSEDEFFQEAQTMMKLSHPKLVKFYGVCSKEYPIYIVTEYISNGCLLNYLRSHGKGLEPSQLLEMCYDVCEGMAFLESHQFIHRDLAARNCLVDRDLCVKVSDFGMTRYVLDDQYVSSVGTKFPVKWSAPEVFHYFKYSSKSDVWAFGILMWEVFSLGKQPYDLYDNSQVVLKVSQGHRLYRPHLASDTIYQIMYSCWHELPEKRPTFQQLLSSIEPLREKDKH

[22] = target: T4, Tyrosine-protein kinase Tec (Homo sapiens, UniProt P42680); assay: Inhibition of TEC (unknown origin)
T4 sequence (P42680 whole entry): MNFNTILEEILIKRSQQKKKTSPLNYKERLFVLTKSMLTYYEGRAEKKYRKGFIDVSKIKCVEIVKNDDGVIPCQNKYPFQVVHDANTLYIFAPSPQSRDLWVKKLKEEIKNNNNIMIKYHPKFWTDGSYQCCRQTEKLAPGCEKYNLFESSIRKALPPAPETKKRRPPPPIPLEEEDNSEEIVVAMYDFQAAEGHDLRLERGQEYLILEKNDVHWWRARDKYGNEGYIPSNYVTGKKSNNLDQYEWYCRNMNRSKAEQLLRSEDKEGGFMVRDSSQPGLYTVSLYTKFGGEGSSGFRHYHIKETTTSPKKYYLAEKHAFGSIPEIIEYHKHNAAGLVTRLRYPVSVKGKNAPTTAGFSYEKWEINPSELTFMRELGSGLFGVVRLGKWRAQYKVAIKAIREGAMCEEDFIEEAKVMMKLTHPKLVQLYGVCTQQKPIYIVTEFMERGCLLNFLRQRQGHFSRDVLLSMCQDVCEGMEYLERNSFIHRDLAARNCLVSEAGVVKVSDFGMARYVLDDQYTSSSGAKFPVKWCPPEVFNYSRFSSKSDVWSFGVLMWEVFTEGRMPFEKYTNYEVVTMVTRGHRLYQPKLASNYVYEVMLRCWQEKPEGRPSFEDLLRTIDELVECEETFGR

Homo sapiens [23] = organism: Homo sapiens; assay: Selectivity ratio of IC50 for BMX (unknown origin) to IC50 for BTK (unknown origin)
[24] = target: Tyrosine-protein kinase Yes (Homo sapiens, UniProt P07947); assay: Inhibition of YES1 (unknown origin)
Homo sapiens [25] = organism: Homo sapiens; assay: Selectivity ratio of IC50 for TEC (unknown origin) to IC50 for BTK (unknown origin)
[26] = Oral bioavailability in rat at 10 mg/kg; assay type: ADME, organism-based; conditions: in vivo
[27] = target: Tyrosine-protein kinase Lck (Homo sapiens, UniProt P06239); assay: Inhibition of LCK (unknown origin)
[28] = target: Tyrosine-protein kinase Srms (Homo sapiens, UniProt Q9H3Y6); assay: Inhibition of SRMS (unknown origin)
Homo sapiens [29] = organism: Homo sapiens; assay: Selectivity ratio of IC50 for BLK (unknown origin) to IC50 for BTK (unknown origin)
[30] = Total clearance in dog plasma at 2 mg/kg administered as cassette dose; assay type: ADME, organism-based, Canis lupus familiaris
[31] = Half life in rat at 10 mg/kg; assay type: ADME, organism-based; conditions: in vivo
Homo sapiens [32] = organism: Homo sapiens; assay: Selectivity ratio of IC50 for CSK (unknown origin) to IC50 for BTK (unknown origin)
[33] = target: Tyrosine-protein kinase Blk (Homo sapiens, UniProt P51451); assay: Inhibition of BLK (unknown origin)
[34] = Total clearance in rat plasma at 10 mg/kg; assay type: ADME, organism-based
Homo sapiens [35] = organism: Homo sapiens; assay: Selectivity ratio of IC50 for TXK (unknown origin) to IC50 for BTK (unknown origin)
Homo sapiens [36] = organism: Homo sapiens; assay: Selectivity ratio of IC50 for YES1 (unknown origin) to IC50 for BTK (unknown origin)
[37] = target: T1, Tyrosine-protein kinase BTK; assay: Inhibition of BTK in human PBMC assessed as reduction in anti-IgM-induced MIP1beta
Homo sapiens [38] = organism: Homo sapiens; assay: Selectivity ratio of IC50 for SRMS (unknown origin) to IC50 for BTK (unknown origin)

T1 sequence (Q06187 whole entry): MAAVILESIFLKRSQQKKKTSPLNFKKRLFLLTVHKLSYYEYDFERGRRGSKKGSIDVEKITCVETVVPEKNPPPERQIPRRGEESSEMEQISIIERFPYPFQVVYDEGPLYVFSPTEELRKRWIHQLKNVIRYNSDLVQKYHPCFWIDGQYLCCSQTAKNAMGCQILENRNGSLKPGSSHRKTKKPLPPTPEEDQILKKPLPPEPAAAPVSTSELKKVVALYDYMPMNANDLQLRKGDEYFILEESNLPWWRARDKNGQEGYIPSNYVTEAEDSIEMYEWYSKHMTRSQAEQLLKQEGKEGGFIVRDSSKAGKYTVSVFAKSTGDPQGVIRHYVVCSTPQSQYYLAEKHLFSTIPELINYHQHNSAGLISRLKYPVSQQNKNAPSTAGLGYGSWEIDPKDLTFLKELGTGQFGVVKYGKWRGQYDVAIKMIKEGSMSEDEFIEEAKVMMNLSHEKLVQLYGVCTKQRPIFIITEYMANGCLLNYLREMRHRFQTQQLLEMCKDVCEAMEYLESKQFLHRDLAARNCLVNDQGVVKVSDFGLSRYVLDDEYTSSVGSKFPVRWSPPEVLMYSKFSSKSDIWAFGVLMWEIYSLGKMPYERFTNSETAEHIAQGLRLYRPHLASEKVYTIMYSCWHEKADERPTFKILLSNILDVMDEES
Voltage-gated inwardly rectifying potassium channel KCNH2, sequence (Q12809 whole entry): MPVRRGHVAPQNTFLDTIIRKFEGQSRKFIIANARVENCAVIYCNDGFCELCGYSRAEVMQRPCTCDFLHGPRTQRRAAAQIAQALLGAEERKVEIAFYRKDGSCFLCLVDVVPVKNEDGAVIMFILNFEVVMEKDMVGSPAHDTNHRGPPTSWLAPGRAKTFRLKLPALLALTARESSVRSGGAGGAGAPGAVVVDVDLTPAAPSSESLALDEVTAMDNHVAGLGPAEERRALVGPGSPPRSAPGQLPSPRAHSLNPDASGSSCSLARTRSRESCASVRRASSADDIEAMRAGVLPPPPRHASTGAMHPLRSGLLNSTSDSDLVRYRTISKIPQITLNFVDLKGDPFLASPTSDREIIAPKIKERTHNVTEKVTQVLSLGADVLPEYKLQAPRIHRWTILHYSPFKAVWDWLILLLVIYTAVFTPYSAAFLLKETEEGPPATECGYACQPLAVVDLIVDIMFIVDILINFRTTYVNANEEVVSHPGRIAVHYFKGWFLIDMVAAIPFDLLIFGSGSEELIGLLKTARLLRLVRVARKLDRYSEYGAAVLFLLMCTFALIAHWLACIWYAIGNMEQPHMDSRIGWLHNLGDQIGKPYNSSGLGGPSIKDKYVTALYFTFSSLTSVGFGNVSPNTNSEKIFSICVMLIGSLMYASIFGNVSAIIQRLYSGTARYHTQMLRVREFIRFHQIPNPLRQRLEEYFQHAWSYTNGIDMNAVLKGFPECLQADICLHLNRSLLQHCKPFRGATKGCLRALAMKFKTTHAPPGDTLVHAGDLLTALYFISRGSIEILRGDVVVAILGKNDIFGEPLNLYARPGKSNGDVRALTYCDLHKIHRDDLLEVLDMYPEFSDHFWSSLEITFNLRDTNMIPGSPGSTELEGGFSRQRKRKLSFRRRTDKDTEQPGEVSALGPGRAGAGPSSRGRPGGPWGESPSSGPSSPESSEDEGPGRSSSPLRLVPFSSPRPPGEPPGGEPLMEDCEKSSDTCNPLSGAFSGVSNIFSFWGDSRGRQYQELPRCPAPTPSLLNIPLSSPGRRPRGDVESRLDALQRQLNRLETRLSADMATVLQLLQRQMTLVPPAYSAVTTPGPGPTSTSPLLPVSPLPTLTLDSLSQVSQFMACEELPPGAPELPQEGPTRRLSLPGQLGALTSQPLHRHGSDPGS
Tyrosine-protein kinase Lck, sequence (P06239 whole entry): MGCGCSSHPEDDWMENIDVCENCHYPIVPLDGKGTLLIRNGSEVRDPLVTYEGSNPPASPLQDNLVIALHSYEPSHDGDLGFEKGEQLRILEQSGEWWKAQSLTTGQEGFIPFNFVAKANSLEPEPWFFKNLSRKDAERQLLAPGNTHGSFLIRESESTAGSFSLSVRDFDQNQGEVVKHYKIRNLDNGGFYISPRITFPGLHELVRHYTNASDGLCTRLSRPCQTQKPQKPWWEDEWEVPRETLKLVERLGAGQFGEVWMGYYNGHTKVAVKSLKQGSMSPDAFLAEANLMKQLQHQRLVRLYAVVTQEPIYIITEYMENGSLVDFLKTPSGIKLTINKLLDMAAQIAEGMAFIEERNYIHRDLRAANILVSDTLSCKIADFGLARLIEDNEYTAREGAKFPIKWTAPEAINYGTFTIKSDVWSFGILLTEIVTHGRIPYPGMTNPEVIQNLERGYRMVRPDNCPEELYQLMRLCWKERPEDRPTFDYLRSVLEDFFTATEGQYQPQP
Proto-oncogene tyrosine-protein kinase Src, sequence (P12931 2-536 limits assumed): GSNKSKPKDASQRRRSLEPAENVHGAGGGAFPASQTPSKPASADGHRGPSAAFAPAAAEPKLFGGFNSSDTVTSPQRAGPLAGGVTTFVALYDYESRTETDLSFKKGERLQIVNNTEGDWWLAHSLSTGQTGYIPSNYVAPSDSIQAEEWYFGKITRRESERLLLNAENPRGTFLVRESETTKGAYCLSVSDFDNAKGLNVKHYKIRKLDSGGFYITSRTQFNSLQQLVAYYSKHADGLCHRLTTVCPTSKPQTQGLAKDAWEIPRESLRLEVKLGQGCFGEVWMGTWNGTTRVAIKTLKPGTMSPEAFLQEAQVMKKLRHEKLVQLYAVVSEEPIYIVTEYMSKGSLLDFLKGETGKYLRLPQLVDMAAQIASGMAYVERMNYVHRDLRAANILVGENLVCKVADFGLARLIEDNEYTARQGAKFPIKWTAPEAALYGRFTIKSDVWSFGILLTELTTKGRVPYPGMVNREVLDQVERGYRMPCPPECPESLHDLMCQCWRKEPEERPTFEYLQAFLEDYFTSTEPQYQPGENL
Protein-tyrosine kinase 6, sequence (Q13882 whole entry): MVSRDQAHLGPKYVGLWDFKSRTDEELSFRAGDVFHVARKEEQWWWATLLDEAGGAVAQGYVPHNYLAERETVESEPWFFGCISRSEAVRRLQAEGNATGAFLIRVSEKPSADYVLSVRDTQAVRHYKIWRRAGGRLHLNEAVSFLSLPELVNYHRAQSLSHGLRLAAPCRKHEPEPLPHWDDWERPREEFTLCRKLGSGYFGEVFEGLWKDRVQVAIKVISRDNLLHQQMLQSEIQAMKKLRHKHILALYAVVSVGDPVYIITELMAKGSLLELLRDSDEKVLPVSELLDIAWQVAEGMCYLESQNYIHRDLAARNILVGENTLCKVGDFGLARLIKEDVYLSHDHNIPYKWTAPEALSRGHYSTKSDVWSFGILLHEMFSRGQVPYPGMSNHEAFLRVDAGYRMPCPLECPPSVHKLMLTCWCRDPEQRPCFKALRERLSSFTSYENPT
Tyrosine-protein kinase Fgr, sequence (P09769 whole entry): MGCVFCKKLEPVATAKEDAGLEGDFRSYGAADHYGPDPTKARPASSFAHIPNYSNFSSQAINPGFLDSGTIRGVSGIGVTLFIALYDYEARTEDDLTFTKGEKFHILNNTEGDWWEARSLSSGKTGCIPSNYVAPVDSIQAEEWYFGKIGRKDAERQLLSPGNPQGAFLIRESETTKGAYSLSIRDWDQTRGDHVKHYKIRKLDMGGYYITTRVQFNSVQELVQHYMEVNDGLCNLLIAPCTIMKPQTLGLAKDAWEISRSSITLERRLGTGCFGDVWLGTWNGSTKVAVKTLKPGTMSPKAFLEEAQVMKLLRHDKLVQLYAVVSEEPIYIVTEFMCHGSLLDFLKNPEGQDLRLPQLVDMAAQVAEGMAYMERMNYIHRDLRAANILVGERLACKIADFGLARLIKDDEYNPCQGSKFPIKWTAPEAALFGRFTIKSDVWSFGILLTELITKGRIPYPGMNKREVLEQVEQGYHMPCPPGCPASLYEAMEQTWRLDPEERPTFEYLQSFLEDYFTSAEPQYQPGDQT
Tyrosine-protein kinase Lyn, sequence (P07948 whole entry): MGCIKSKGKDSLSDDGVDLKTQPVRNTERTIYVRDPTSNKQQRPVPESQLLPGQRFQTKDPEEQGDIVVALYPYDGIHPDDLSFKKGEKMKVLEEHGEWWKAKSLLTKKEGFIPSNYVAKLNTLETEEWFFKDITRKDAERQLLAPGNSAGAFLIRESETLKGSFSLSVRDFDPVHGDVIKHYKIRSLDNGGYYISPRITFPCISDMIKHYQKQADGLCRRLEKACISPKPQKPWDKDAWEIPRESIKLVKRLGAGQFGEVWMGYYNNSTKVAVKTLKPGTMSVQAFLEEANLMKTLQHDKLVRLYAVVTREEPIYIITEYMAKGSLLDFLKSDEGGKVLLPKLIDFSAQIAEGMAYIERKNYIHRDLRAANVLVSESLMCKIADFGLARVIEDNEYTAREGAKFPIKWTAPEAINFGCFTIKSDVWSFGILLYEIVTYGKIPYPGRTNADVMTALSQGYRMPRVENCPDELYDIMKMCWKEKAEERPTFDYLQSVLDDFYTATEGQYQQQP
Tyrosine-protein kinase Fyn, sequence (P06241 whole entry): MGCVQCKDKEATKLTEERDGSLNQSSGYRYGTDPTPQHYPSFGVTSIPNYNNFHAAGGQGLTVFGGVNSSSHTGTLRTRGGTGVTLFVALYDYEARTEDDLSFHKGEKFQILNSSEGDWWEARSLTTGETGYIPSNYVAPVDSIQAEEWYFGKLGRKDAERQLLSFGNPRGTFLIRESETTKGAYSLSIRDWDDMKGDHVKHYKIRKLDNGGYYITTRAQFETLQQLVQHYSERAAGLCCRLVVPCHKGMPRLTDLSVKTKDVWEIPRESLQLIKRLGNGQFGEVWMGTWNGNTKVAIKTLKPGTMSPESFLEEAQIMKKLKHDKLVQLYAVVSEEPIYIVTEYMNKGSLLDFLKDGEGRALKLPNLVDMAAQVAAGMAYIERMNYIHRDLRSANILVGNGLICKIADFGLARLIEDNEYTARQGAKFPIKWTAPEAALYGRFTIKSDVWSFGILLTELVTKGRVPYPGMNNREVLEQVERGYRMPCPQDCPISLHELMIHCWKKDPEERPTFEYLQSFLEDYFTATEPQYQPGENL

IC50 [1]: 0.37 to 0.4 nM | IC50 [2]: 256 nM | Ratio IC50 (Homo sapiens [3]): 187 | IC50 [4]: 268 nM | IC50 [5]: 169 nM | IC50 [6]: 69 nM | IC50 [7]: 626 nM | Ratio IC50 (Homo sapiens [9]): 723 | IC50 [10]: 77 nM | Ratio IC50 (Homo sapiens [11]): 1540 | Ratio IC50 (Homo sapiens [12]): 75 | half-life [13]: 2.5 h | Ratio IC50 (Homo sapiens [14]): 578 | Ratio IC50 (Homo sapiens [15]): 209 | Ratio IC50 (Homo sapiens [16]): 333 | IC50 [17]: 214 nM | IC50 [18]: 123 nM | Ratio IC50 (Homo sapiens [19]): 457 | IC50 [20]: 571 nM | IC50 [21]: 331 nM | IC50 [22]: 232 nM | Ratio IC50 (Homo sapiens [23]): 895 | IC50 [24]: 73 nM | Ratio IC50 (Homo sapiens [25]): 626 | bioavailability [26]: 42% | IC50 [27]: 28 nM | IC50 [28]: 76 nM | Ratio IC50 (Homo sapiens [29]): 212 | clearance [30]: 13.8 mL/min/kg | half-life [31]: 0.8 h | Ratio IC50 (Homo sapiens [32]): 2230 | IC50 [33]: 78 nM | clearance [34]: 8.2 mL/min/kg | Ratio IC50 (Homo sapiens [35]): 691 | Ratio IC50 (Homo sapiens [36]): 198 | IC50 [37]: 14 nM | Ratio IC50 (Homo sapiens [38]): 205
SMILES: COCC(=O)N1CCO[C@@H](c2nc(-c3ccc(C(=O)Nc4cc(C(F)(F)F)ccn4)cc3F)c3c(N)nccn23)C1
IC50 [8]: 24000 nM
